# According to PMC10897598, “TwinF interface inhibitor FP802 stops loss of motor neurons and mitigates disease progression in a mouse model of ALS” (Cell Reports Medicine, 2024):
# pIC50: −log10 of the molar value.
# Experiments:
# [1] = system: primary mouse cortical neurons; assay: Glutamate neurotoxicity assay in primary cortical neurons; assay type: cell-based; conditions: Cortical neurone, 20 μM glutamate, compound added 30 min prior, nuclear mCherry-positive neurons, read-out: IC50, protective activity against glutamate-mediated neurotoxicity
# Experimental: On DIV10, vehicle (DMSO) or FP802 were added to the primary cortical cultures 30 min prior to glutamate insult. Images were acquired following the glutamate application for 24 h with 2 h intervals, where 9 images were obtained via a 20x objective for each condition at each time point with IncuCyte S3 Live-Cell Analysis System (Sartorius AG, Germany).
# [2] = molecular target: T1, human GluN1/GluN2A NMDARs (Homo sapiens, UniProt Q05586+Q12879); assay: Automated patch clamp, NMDARs in HEK293 cells; assay type: cell-based; conditions: +40 mV; glycine 100 μM plus NMDA 90 μM; stable HEK293
# T1 construct: host or cells: HEK293
# T1 sequence (Q12879 23-1464, other chains not shown): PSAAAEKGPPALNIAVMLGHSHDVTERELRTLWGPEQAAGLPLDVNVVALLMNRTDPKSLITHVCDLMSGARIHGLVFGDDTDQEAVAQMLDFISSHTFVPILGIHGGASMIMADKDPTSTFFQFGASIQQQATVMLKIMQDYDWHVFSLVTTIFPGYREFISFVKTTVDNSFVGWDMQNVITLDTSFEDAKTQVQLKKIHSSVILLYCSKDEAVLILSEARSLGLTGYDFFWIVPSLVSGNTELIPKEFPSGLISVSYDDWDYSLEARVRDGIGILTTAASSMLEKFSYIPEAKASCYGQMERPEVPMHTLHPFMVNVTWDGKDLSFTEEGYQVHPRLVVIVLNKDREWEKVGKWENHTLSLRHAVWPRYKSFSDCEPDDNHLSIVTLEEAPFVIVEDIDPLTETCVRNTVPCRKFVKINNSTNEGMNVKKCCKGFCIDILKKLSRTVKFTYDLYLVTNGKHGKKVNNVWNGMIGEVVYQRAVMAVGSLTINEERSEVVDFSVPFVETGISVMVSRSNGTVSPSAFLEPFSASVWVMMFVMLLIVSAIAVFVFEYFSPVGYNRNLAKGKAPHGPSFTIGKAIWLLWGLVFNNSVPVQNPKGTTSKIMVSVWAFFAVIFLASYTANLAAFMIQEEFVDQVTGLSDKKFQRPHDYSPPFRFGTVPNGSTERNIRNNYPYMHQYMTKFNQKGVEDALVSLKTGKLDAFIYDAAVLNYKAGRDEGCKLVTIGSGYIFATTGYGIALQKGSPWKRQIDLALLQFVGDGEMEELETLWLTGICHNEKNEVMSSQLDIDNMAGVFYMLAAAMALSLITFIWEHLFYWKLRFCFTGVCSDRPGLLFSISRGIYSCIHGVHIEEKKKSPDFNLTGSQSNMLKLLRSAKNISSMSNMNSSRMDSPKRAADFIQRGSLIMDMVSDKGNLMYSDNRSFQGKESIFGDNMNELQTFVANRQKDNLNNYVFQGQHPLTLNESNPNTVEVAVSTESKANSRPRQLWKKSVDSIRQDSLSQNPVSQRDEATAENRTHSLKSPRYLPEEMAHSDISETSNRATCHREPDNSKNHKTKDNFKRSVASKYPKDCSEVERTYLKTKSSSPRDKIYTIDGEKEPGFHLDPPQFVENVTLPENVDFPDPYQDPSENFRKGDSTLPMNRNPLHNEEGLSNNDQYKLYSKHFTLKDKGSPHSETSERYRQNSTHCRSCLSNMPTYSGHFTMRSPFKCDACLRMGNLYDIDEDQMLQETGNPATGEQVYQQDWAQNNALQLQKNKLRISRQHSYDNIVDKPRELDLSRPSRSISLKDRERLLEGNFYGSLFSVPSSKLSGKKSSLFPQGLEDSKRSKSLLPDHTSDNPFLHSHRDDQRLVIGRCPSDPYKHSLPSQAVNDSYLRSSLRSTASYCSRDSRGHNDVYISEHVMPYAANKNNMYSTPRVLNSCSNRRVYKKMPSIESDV
# Experimental: (§1) Recombinant human GluN1 (UniProt ID Q05586) with GluN2A (Uniprot Q12879) or GluN2B (Uniprot Q13224) NMDARs were stably expressed under tetracycline control in HEK293 cell lines (Charles River). Voltage-clamp recordings were performed using the Sophion Qube platform which performs 384 parallel and independent patch-clamp recordings with digitally controlled microfluidics (Tecan D300) on a disposable single-hole or multi-hole QChip. The following extracellular solution was used: 145 mM NaCl, 4 mM KCl, 10 mM HEPES, 10 mM glucose, 2 mM CaCl2, 1 mM MgCl2; pH 7.4. The following intracellular solution was used: 70 mM CsF, 70 mM CsCl, 10 mM HEPES, 1 mM EGTA; 316 mOsm, pH 7.2. For analysis of channel activation kinetics, cells were held at −70 mV and stepped to −20 mV before the application of glycine (100 μM) plus NMDA (90 μM for GluN1/GluN2A and 40 μM for GluN1/GluN2B). […] Quality control thresholds were set according to the seal resistance (minimum […]), and failed experiments were excluded from the analysis. For analysis of steady state agonist IC50 values, voltage steps to +40 mV were performed in the presence and absence of agonists before and after compound application in the same cell. IC50 data were generated from agonist responses as described before.[20]
# (§2) Figure S1. Analysis of IC50 values of FP802 for NMDARs in HEK293 cells. […] The effects of FP802 on NMDARs were evaluated at +40 […]
# [3] = molecular target: T2, human GluN1/GluN2B NMDARs (Homo sapiens, UniProt Q05586+Q13224); assay: Automated patch clamp, NMDARs in HEK293 cells; assay type: cell-based; conditions: +40 mV; glycine 100 μM plus NMDA 40 μM; stable HEK293
# T2 construct: host or cells: HEK293
# T2 sequence (Q13224 27-1484, other chains not shown): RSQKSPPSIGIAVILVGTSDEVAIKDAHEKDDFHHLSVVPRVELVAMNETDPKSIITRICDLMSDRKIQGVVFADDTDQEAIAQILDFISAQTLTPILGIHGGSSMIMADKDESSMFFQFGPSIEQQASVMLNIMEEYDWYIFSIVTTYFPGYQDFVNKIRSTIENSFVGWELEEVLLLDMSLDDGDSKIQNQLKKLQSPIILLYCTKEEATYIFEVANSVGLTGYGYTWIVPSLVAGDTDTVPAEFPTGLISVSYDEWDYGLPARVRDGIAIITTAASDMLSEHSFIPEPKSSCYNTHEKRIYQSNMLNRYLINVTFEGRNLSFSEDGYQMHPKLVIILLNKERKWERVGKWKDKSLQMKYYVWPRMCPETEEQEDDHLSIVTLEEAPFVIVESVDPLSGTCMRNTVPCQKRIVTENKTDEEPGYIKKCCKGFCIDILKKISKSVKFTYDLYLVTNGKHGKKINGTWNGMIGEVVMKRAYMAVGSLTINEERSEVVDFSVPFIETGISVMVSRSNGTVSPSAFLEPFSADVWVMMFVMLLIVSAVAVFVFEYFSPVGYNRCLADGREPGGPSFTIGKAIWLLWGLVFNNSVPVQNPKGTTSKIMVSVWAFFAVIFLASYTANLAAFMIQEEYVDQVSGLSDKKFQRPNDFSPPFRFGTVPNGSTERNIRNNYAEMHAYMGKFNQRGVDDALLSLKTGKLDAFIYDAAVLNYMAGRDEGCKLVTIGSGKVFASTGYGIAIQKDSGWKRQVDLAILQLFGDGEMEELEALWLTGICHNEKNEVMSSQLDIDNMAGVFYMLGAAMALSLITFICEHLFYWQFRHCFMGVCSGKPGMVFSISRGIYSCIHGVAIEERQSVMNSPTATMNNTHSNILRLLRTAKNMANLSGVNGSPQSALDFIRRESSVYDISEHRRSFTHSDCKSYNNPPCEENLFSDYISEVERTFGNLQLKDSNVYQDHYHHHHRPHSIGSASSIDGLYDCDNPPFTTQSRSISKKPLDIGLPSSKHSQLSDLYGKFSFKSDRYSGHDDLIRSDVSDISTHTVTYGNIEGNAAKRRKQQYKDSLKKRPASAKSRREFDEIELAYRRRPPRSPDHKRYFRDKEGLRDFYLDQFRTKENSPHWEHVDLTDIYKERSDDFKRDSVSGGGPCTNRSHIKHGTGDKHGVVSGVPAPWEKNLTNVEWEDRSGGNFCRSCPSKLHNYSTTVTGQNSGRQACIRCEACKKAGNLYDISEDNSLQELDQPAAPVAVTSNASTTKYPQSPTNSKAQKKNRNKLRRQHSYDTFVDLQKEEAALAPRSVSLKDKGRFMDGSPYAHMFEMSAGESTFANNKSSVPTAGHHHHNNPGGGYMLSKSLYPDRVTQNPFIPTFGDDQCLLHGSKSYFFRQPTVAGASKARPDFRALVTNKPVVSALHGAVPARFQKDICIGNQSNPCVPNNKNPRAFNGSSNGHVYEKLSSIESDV
# Experimental: as §1, §2
# 30 common targets = assay: Pharmacology safety screening, radioligand binding assays; conditions: 10 µM; significant = over 50% inhibition or stimulation
# Experimental: Pharmacology safety of FP802 was evaluated in radio ligand binding assays carried out by Eurofins Panlabs Discovery Services Taiwan, Ltd. Significant responses are defined as over 50% inhibition or stimulation in the primary assays.
# Table S1. Pharmacology safety profile of FP802. […]
# [4] = system: primary mouse cortical neurons; conditions: FP802 10 μM, 30 min pre-incubation, NMDA 20 μM, 2 h
# Experimental: Primary mouse cortical neurons were pre-incubated with FP802 (10 μM) or vehicle for 30 min before a 2-h treatment with either bicuculline (Bic, 50 μM) to induce action potential (AP) bursting or NMDA (20 μM) to induce excitotoxic insults. The mRNA levels of Arc, Atf3, Bdnf, c-Fos, Inhibin beta A, and Npas4 were assessed by RT-qPCR. Data represent means ± SD, n = 3; ns: no significant difference, ∗p < 0.05, ∗∗p < 0.01, ∗∗∗p < 0.001, two-way ANOVA followed by Dunnett's multiple comparisons.
# Primary mouse cortical neurons were prepared as previously described.[43]^,[44] Briefly, brain cortices from neonatal mice (C57/Bl6, RRID:MGI:7264769) were removed and cut into small pieces in the dissociation medium (in mM: 81.8 Na2SO4, 30 K2SO4, 15.85 MgCl2, 0.25 CaCl2, 1.0 HEPES, 1050.0 kynurenic acid; 0.2% phenol red and 0.36% glucose). The tissues were then digested with papain latex (10 units/mL) in the dissociation medium supplemented with 0.45 mg/mL L-cysteine for two times of 15 min in a 37°C water bath with stirring at 15 rpm. Then the tissue was washed twice with the dissociation medium and incubated with trypsin inhibitor (0.01 g/mL) in dissociation medium for 3 × 5 min. The samples were then triturated into single cell solution and plated at a density of 0.25 × 10^6 cell per well in 24-well plates, which have been pretreated with poly-D-lysine (26.7 mg/μL) and laminin (6.7 mg/μL). […]
smiles,measurement,setting,value
CCN(CCN)Cc1cccc(Cl)c1 [FP802],pIC50,[1],5.06
same,pIC50,[2],< 3.60
same,pIC50,[3],< 3.60
same,binding activities in radioligand binding safety panel,30 common targets,No significant binding activities
same,transcriptional shut-off induced by eNMDARs,[4],eliminated
same,"NMDA bath application-induced expression of IEGs Atf3, Arc, Bdnf, cFos, Inhibin beta A, Npas4","[4]; RT-qPCR, levels comparable to bicuculline-induced AP bursting",boosted
